This is an account of results in US20180162862A1 (President and Fellows of Harvard College, priority 2015, published 2018).

Values after ≈ are worked out from the molar mass of the structure shown. Like-named read-outs stand apart in the source and are kept apart here.

Format in all cases: cell-based
One assay deals with S. aureus Newman. The assay is described as follows: MIC test according to CLSI M7-A9, S. aureus Newman. As to conditions: Staphylococcus aureus, CLSI M7-A9, CAMHB, 24 h (Table 3), read-out: S. aureus ATCC Newman MIC. The protocol:
(§1) MIC Test (S. aureus ATCC 29213, S. aureus ATCC 43300 and S. aureus Newman)
(§2) Susceptibility testing of S. aureus ATCC 29213, ATCC 43300 and Newman was performed according to Clinical Laboratory Standard Institute (CLSI) guidelines M7-A9. Test articles were stored at room temperature prior to use, then dissolved in filtered sterile DMSO. Stock DMSO solutions were diluted further in cation-adjusted Mueller Hinton broth (CAMHB) to provide appropriate test concentrations. Cultures of S. aureus (ATCC 29213, ATCC 43300 or Newman) were added in accordance with CLSI guidelines and plates incubated at 37° C. in air for 24 h. Endpoints were determined visually (and by spectrophotometer at 600 nm) and the minimum inhibitory concentration (MIC) defined as the lowest concentration of test articles resulting in complete inhibition of visible bacterial growth. Results are detailed in Table 2 (S. aureus ATCC 29213 and ATCC 43300) and Table 3 (S. aureus ATCC 29213, ATCC 43300 and Newman).

The subject of a further assay is S. aureus ATCC 29213. Nature of the assay: MIC test according to CLSI M7-A9, S. aureus ATCC 29213. To be noted: Staphylococcus aureus, ATCC29213, CLSI M7-A9, CAMHB. As for the experimental part:
as §1, §2

The next assay concerns S. aureus ATCC 43300. The assay is described as follows: MIC test according to CLSI M7-A9, S. aureus ATCC 43300. To be noted: Staphylococcus aureus, ATCC43300; CLSI M7-A9, CAMHB, 24 h (Table 2); read-out: S. aureus ATCC 43300 MIC at 24 h. As for the experimental part: as §1, §2
The mark [1] stands for this setting: 24 h (Table 3), read-out: S. aureus ATCC 29213 MIC.
[2] abbreviates: 24 h (Table 2), read-out: S. aureus ATCC 29213 MIC at 24 h.

Regarding `CC(C)(C)c1ccc(-c2nc(NCCCNC3Cc4ccccc4C3)n3[nH]c(=O)c(Cc4c[nH]cn4)c3n2)cc1` [Example 109, 2-(4-tert-butylphenyl)-4-({3-[(2,3-dihydro-1H-inden-2-yl)amino]propyl}amino)-8-(1H-imidazol-4-ylmethyl)-6H,7H-pyrazolo[1,5-a][1,3,5]triazin-7-one], the MIC with S. aureus Newman stood at 1 mg/L (≈ 1.86 µM); in the assay on S. aureus ATCC 29213 (setting [1]), 4 mg/L (≈ 7.45 µM).

On to `CC(C)(C)c1ccc(-c2nc(N3CCN(CCO)CC3)n3[nH]c(=O)cc3n2)cc1` [Example 77, 2-(4-tert-butylphenyl)-4-[4-(2-hydroxyethyl)piperazin-1-yl]-6H,7H-pyrazolo[1,5-a][1,3,5]triazin-7-one], for which the MIC in the assay on S. aureus Newman and in the assay with S. aureus ATCC 29213 (setting [1]) was 64 mg/L (≈ 161 µM) each time.

As for `CC(C)(C)c1ccc(-c2nc(NCc3ccc(C#N)cc3)n3[nH]c(=O)cc3n2)cc1` [Example 84, 4-({[2-(4-tert-butylphenyl)-7-oxo-6H,7H-pyrazolo[1,5-a][1,3,5]triazin-4-yl]amino}methyl)benzonitrile], the MIC in the assay on S. aureus Newman was 8 mg/L (≈ 20.1 µM); in the assay on S. aureus ATCC 29213 (setting [1]), 16 mg/L (≈ 40.2 µM).

For `Cc1cc(OCCCN(CCCN(C)C)c2nc(-c3ccc(C(C)(C)C)cc3)nc3cc(=O)[nH]n23)ccc1Cl` [Example 86, 2-(4-tert-butylphenyl)-4-{[3-(4-chloro-3-methylphenoxy)propyl][3-(dimethylamino)propyl]amino}-6H,7H-pyrazolo[1,5-a][1,3,5]triazin-7-one], the results for the minimum inhibitory concentration (MIC) with S. aureus Newman and in the assay on S. aureus ATCC 29213 (setting [1]) were 1 mg/L (≈ 1.81 µM) and 2 mg/L (≈ 3.63 µM), respectively.

On to `CC(C)(C)c1ccc(-c2nc(NCCCN3CCc4ccccc4C3)n3[nH]c(=O)cc3n2)cc1` [Example 91, 2-(4-tert-butylphenyl)-4-{[3-(1,2,3,4-tetrahydroisoquinolin-2-yl)propyl]amino}-6H,7H-pyrazolo[1,5-a][1,3,5]triazin-7-one], for which the figures for the MIC with S. aureus Newman and in the assay on S. aureus ATCC 29213 (setting [1]) were 16 mg/L (≈ 35 µM) and 32 mg/L (≈ 70.1 µM), respectively.

For `Cc1ccc(Cc2c(=O)[nH]n3c(NCCCN4CCc5ccccc5C4)nc(-c4ccc(C(C)(C)C)cc4)nc23)cn1` [Example 115, 2-(4-tert-butylphenyl)-8-[(6-methylpyridin-3-yl)methyl]-4-[3-(1,2,3,4-tetrahydroisoquinolin-2-yl)propyl]amino-6H,7H-pyrazolo[1,5-a][1,3,5]triazin-7-one], the results for the MIC in the assay with S. aureus Newman and in the assay with S. aureus ATCC 29213 (setting [1]) were 8 mg/L (≈ 14.2 µM) and 32 mg/L (≈ 57 µM), respectively.

On to `CN(C)CCCNc1nc(-c2ccc(C(C)(C)C)cc2)nc2c(CC34CC5CC(CC(C5)C3)C4)c(=O)[nH]n12` [Example 120, 8-(adamantan-1-ylmethyl)-2-(4-tert-butylphenyl)-4-{[3-(dimethylamino)propyl]amino}-6H,7H-pyrazolo[1,5-a][1,3,5]triazin-7-one], for which the MIC with S. aureus Newman and in the assay with S. aureus ATCC 29213 (setting [1]) was 1 mg/L (≈ 1.94 µM) throughout.

As for `Cc1ccc(Cc2c(=O)[nH]n3c(NCCCO)nc(-c4ccc(C(C)(C)C)cc4)nc23)cn1` [Example 113, 2-(4-tert-butylphenyl)-4-[(3-hydroxypropyl)amino]-8-[(6-methylpyridin-3-yl)methyl]-6H,7H-pyrazolo[1,5-a][1,3,5]triazin-7-one], the MIC with S. aureus Newman and in the assay on S. aureus ATCC 29213 (setting [1]) was 32 mg/L (≈ 71.7 µM) throughout.

Consider `CC(C)(C)c1ccc(-c2nc(NCC(=O)NC3Cc4ccccc4C3)n3[nH]c(=O)cc3n2)cc1` [Example 88, 2-{[2-(4-tert-butylphenyl)-7-oxo-6H,7H-pyrazolo[1,5-a][1,3,5]triazin-4-yl]amino}-N-(2,3-dihydro-1H-inden-2-yl)acetamide], for which the MIC in the assay on S. aureus Newman is 128 mg/L (≈ 280 µM); in the assay on S. aureus ATCC 29213 (setting [1]), over 128 mg/L.

For the molecule `CC(C)(C)c1nc(NCCCNC2Cc3ccccc3C2)n2[nH]c(=O)cc2n1` [Example 95, 2-tert-butyl-4-({3-[(2,3-dihydro-1H-inden-2-yl)amino]propyl}amino)-6H,7H-pyrazolo[1,5-a][1,3,5]triazin-7-one], the results for the MIC with S. aureus Newman and with S. aureus ATCC 29213 (setting [1]) were 8 mg/L (≈ 21 µM) and 16 mg/L (≈ 42.1 µM), respectively.

Turning to `O=c1[nH]n2c(NCCCNC3Cc4ccccc4C3)nc(C34CC5CC(CC(C5)C3)C4)nc2c1Cc1ccccc1` [Example 125, 2-(adamantan-1-yl)-8-benzyl-4-({3-[(2,3-dihydro-1H-inden-2-yl)amino]propyl}amino)-6H,7H-pyrazolo[1,5-a][1,3,5]triazin-7-one], the MIC in the assay with S. aureus Newman came out at 1 mg/L (≈ 1.82 µM); in the assay with S. aureus ATCC 29213 (setting [1]), 2 mg/L (≈ 3.64 µM).

As to `CN(CCCNc1nc(-c2ccc(C(C)(C)C)cc2)nc2cc(=O)[nH]n12)Cc1ccccc1` [Example 98, 4-({3-[benzyl(methyl)amino]propyl}amino)-2-(4-tert-butylphenyl)-6H,7H-pyrazolo[1,5-a][1,3,5]triazin-7-one], the MIC in the assay with S. aureus Newman and in the assay with S. aureus ATCC 29213 (setting [1]) was 32 mg/L (≈ 72 µM) throughout.

Consider `Cc1ccc(Cc2c(=O)[nH]n3c(NCCCN(C)C)nc(-c4ccc(C(C)(C)C)cc4)nc23)cn1` [Example 114, 2-(4-tert-butylphenyl)-4-{[3-(dimethylamino)propyl]amino}-8-[(6-methylpyridin-3-yl)methyl]-6H,7H-pyrazolo[1,5-a][1,3,5]triazin-7-one], for which the MIC in the assay with S. aureus Newman and with S. aureus ATCC 29213 (setting [1]) was 64 mg/L (≈ 135 µM) throughout.

Turning to `CCCCNc1nc(-c2ccc(C(C)(C)C)cc2)nc2c(Cc3c[nH]cn3)c(=O)[nH]n12` [Example 110, 4-(butylamino)-2-(4-tert-butylphenyl)-8-(1H-imidazol-4-ylmethyl)-6H,7H-pyrazolo[1,5-a][1,3,5]triazin-7-one], the MIC in the assay with S. aureus Newman was 2 mg/L (≈ 4.77 µM); in the assay with S. aureus ATCC 29213 (setting [1]), 4 mg/L (≈ 9.53 µM).

On to `CCCCN(CCCC)CCCNc1nc(-c2ccc(C(C)(C)C)cc2)nc2cc(=O)[nH]n12` [Example 78, 2-(4-tert-butylphenyl)-4-{[3-(dibutylamino)propyl]amino}-6H,7H-pyrazolo[1,5-a][1,3,5]triazin-7-one], for which the MIC with S. aureus Newman and with S. aureus ATCC 29213 (setting [1]) was 32 mg/L (≈ 70.7 µM) each time.

Consider `Cc1cc(OCCCNc2nc(-c3ccc(C(C)(C)C)cc3)nc3c(F)c(=O)[nH]n23)ccc1Cl` [Example 71, 2-(4-tert-butylphenyl)-4-{[3-(4-chloro-3-methylphenoxy)propyl]amino}-8-fluoro-6H,7H-pyrazolo[1,5-a][1,3,5]triazin-7-one], for which the MIC with S. aureus ATCC 29213 (setting [2]) and in the assay on S. aureus ATCC 43300 was 8 mg/L (≈ 16.5 µM) each time.

With `Cc1cc(NCC(F)CNc2nc(-c3ccc(C(C)(C)C)cc3)nc3cc(=O)[nH]n23)ccc1Cl` (stereo not drawn) [Example 66, 2-(4-tert-butylphenyl)-4-({3-[(4-chloro-3-methylphenyl)amino]-2-fluoropropyl}amino)-6H,7H-pyrazolo[1,5-a][1,3,5]triazin-7-one], the MIC stood at 4 mg/L (≈ 8.28 µM) in the assay on S. aureus ATCC 29213 (setting [2]) and 2 mg/L (≈ 4.14 µM) in the assay with S. aureus ATCC 43300.

For the molecule `CC(C)(C)c1ccc(-c2nc(NC3CCCCC3)n3[nH]c(=O)cc3n2)cc1` [Example 36, 2-(4-tert-butylphenyl)-4-(cyclohexylamino)-6H,7H-pyrazolo[1,5-a][1,3,5]triazin-7-one], the MIC in the assay with S. aureus ATCC 29213 (setting [2]) and in the assay on S. aureus ATCC 43300 was 8 mg/L (≈ 21.9 µM) in each case.

As for `CC(C)(C)c1ccc(-c2nc(N3CCC(O)CC3)n3[nH]c(=O)cc3n2)cc1` [Example 20, 2-(4-tert-butylphenyl)-4-(4-hydroxypiperidin-1-yl)-6H,7H-pyrazolo[1,5-a][1,3,5]triazin-7-one], the values for the MIC in the assay with S. aureus ATCC 29213 (setting [2]) and in the assay on S. aureus ATCC 43300 were 64 mg/L (≈ 174 µM) and 128 mg/L (≈ 348 µM), respectively.

Regarding `CC(C)(C)c1ccc(-c2nc(N3CCC(OCc4ccccc4)CC3)n3[nH]c(=O)cc3n2)cc1` [Example 21, 4-[4-(benzyloxy)piperidin-1-yl]-2-(4-tert-butylphenyl)-6H,7H-pyrazolo[1,5-a][1,3,5]triazin-7-one], the MIC with S. aureus ATCC 29213 (setting [2]) is 32 mg/L (≈ 69.9 µM); in the assay on S. aureus ATCC 43300, over 128 mg/L.

On to `Cc1cc(NCC2CN(c3nc(-c4ccc(C(C)(C)C)cc4)nc4cc(=O)[nH]n34)C2)ccc1Cl` [Example 57, 2-(4-tert-butylphenyl)-4-(3-{[(4-chloro-3-methylphenyl)amino]methyl}azetidin-1-yl)-6H,7H-pyrazolo[1,5-a][1,3,5]triazin-7-one], for which the MIC in the assay with S. aureus ATCC 29213 (setting [2]) was 4 mg/L (≈ 8.39 µM); in the assay with S. aureus ATCC 43300, 8 mg/L (≈ 16.8 µM).

As for `CC(C)(C)c1ccc(-c2nc(NCCCN3Cc4ccccc4C3)n3[nH]c(=O)cc3n2)cc1` [Example 44, 2-(4-tert-butylphenyl)-4-{[3-(2,3-dihydro-1H-isoindol-2-yl)propyl]amino}-6H,7H-pyrazolo[1,5-a][1,3,5]triazin-7-one], the MIC with S. aureus ATCC 29213 (setting [2]) was 64 mg/L (≈ 145 µM); in the assay with S. aureus ATCC 43300, over 128 mg/L.

In the case of `Cc1ncc(CN2CCC(Nc3nc(-c4ccc(C(C)(C)C)cc4)nc4cc(=O)[nH]n34)CC2)[nH]1` [Example 55, 2-(4-tert-butylphenyl)-4-({1-[(2-methyl-1H-imidazol-5-yl)methyl]piperidin-4-yl}amino)-6H,7H-pyrazolo[1,5-a][1,3,5]triazin-7-one], the MIC in the assay on S. aureus ATCC 29213 (setting [2]) and with S. aureus ATCC 43300 was 32 mg/L (≈ 69.5 µM) throughout.

On to `CCCCN(C)c1nc(-c2ccc(C(C)(C)C)cc2)nc2cc(=O)[nH]n12` [Example 34, 4-[butyl(methyl)amino]-2-(4-tert-butylphenyl)-6H,7H-pyrazolo[1,5-a][1,3,5]triazin-7-one], for which the MIC in the assay with S. aureus ATCC 29213 (setting [2]) and in the assay on S. aureus ATCC 43300 was 16 mg/L (≈ 45.3 µM) each time.
